Data as given in US8710044B2, “Bicyclic azaheterocyclic carboxamides” (Merck Patent GmbH, priority 2010, dated 2014).

Biological target: T1, P70S6K (T412E mutant, Millipore) (Homo sapiens, UniProt P23443, T412E)
T1 construct: purchased Millipore
Assay: P70S6K Enzyme Assay
Type: biochemical
Conditions: 3 nM enzyme, 24 μM ATP, 1 μM FITC-AHA-[…]-OH substrate peptide, 90 min at 25° C., Caliper Lab Chip 3000
Protocol: P70S6K inhibitor compounds are diluted and plated in 96 well plates. […] The reaction is incubated for 90 min at 25° C., before the addition of 10 mM EDTA to stop the reaction. The proportion of substrate and product (phosphorylated) peptide is analysed on a Caliper Life Sciences Lab Chip 3000, using a pressure of −1.4 psi, and upstream and downstream voltages of −3000 and −700 respectively. Product peaks are resolved before substrate peaks on the resulting chromatograms.

T1 sequence (P23443 whole entry T412E): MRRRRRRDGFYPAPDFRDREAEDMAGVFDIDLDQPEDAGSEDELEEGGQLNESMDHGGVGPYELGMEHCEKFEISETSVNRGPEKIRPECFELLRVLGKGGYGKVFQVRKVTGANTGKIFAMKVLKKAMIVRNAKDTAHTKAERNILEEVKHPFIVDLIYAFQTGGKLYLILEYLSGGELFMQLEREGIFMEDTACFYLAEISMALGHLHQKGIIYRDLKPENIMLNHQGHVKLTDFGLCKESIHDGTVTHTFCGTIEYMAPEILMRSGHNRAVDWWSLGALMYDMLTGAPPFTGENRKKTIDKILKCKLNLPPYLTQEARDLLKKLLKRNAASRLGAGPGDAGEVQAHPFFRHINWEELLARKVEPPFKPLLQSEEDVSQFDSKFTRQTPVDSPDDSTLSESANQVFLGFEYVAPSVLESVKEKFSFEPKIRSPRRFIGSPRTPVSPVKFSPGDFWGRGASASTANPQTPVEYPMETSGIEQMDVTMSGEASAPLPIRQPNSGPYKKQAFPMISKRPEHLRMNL

| IC50 [nM] | SMILES |
| --- | --- |
| 2.8 | CNC[C@@H](Nc1nc(C)nc2c(C(N)=O)cccc12)c1ccc(F)cc1 [Example 16, 4-{[(1S)-1-(4-fluorophenyl)-2-(methylamino)ethyl]amino}-2-methylquinazoline-8-carboxamide] |
| 139 | CNC[C@@H](Nc1nc(C)nc2c(C(N)=O)cccc12)c1cccc(F)c1 [Example 17, 4-{[(1S)-1-(3-fluorophenyl)-2-(methylamino)ethyl]amino}-2-methylquinazoline-8-carboxamide] |
| 23 | CNC[C@@H](Nc1nc(C(C)C)nc2c(C(N)=O)cccc12)c1ccc(Cl)cc1 [Example 18, 4-{[(1S)-1-(4-chlorophenyl)-2-(methylamino)ethyl]amino}-2-isopropylquinazoline-8-carboxamide] |
| 0.83 | CNC[C@@H](Nc1nc(C)nc2c(C(N)=O)cccc12)c1ccc(Cl)cc1 [Example 19, 4-{[(1S)-1-(4-chlorophenyl)-2-(methylamino)ethyl]amino}-2-methylquinazoline-8-carboxamide] |
| 1.97 | CCc1nc(N[C@H](CNC)c2cccc(F)c2)c2cccc(C(N)=O)c2n1 [Example 20, 2-Ethyl-4-{[(1S)-1-(3-fluorophenyl)-2-(methylamino)ethyl]amino}quinazoline-8-carboxamide] |
| 0.87 | CCc1nc(N[C@H](CNC)c2cccc(Cl)c2)c2cccc(C(N)=O)c2n1 [Example 21, 4-{[(1S)-1-(3-Chlorophenyl)-2-(methylamino)ethyl]amino}-2-ethylquinazoline-8-carboxamide] |
| 0.98 | CNC[C@@H](Nc1nc(C)nc2c(C(N)=O)cccc12)c1cccc(Cl)c1 [Example 22, 4-{[(1S)-1-(3-Chlorophenyl)-2-(methylamino)ethyl]amino}-2-methylquinazoline-8-carboxamide] |
| 11 | CCc1nc(N[C@H](CNC)c2ccccc2)c2cccc(C(N)=O)c2n1 [Example 23, 2-Ethyl-4-{[(1S)-2-(methylamino)-1-phenylethyl]amino}quinazoline-8-carboxamide] |
| 1.4 | CCc1nc(N[C@H](CNC)c2ccc(Cl)cc2)c2cccc(C(N)=O)c2n1 [Example 24, 4-{[(1S)-1-(4-Chlorophenyl)-2-(methylamino)ethyl]amino}-2-ethylquinazoline-8-carboxamide] |
| 6.46 | CNC[C@@H](Nc1nc(C)nc2c(C(N)=O)cccc12)c1ccccc1 [Example 26, 2-Methyl-4-{[(1S)-2-(methylamino)-1-phenylethyl]amino}quinazoline-8-carboxamide] |
| 4.3 | CNC[C@@H](Nc1nc(C(F)(F)F)nc2c(C(N)=O)cccc12)c1cccc(F)c1 [Example 27, 4-{[(1S)-1-(3-Fluorophenyl)-2-(methylamino)ethyl]amino}-2-(trifluoromethyl)-quinazoline-8-carboxamide] |
| 18.5 | CCc1nc(N[C@H](CN2CCC2)c2cccc(F)c2)c2cccc(C(N)=O)c2n1 [Example 28] |
| 5.84 | Cc1nc(N[C@H](CN2CCC2)c2ccccc2)c2cccc(C(N)=O)c2n1 [Example 29] |
| 33.6 | CCc1nc(N[C@H](CN2CCC2)c2ccccc2)c2cccc(C(N)=O)c2n1 [Example 30] |
| 2.6 | Cc1nc(N[C@H](CN2CCC2)c2ccc(Cl)cc2)c2cccc(C(N)=O)c2n1 [Example 31] |
| 5.5 | CCc1nc(N[C@H](CN2CCC2)c2ccc(Cl)cc2)c2cccc(C(N)=O)c2n1 [Example 32] |

| IC50 [nM] | SMILES |
| --- | --- |
| 44 | Cc1nc(N[C@H](CN2CCC2)c2ccc(F)cc2)c2cccc(C(N)=O)c2n1 [Example 33] |
| 7 | Cc1nc(N[C@H](CN2CCC2)c2cccc(F)c2)c2cccc(C(N)=O)c2n1 [Example 34] |
| 30 | CCc1nc(N[C@H](CN2CCC2)c2ccc(F)cc2)c2cccc(C(N)=O)c2n1 [Example 36] |
| 12 | CNC[C@@H](Nc1nc(C)nc2c(C(N)=O)cccc12)c1cc(F)ccc1OC [Example 47, 4-[(S)-1-(5-Fluoro-2-methoxy-phenyl)-2-methylamino-ethylamino]-2-methyl-quinazoline-8-carboxylic acid amide] |
| 1 | CNC[C@@H](Nc1nc(C)nc2c(C(N)=O)cccc12)c1ccc(C(F)(F)F)cc1 [Example 48, 2-Methyl-4-[(S)-2-methylamino-1-(4-trifluoromethyl-phenyl)-ethylamino]-quinazoline-8-carboxylic acid amide] |
| 452 | Cc1nc(N[C@@H](Cc2ccccc2)CN(C)C)c2cccc(C(N)=O)c2n1 [Example 49, 4-((S)-1-Benzyl-2-dimethylamino-ethylamino)-2-methyl-quinazoline-8-carboxylic acid amide] |
| 260 | CNC[C@@H](Nc1nc(C)nc2c(C(N)=O)cccc12)c1ccc(F)cc1C(F)(F)F [Example 50, 4-[(1S)-1-[4-fluoro-2-(trifluoromethyl)phenyl]-2-(methylamino)ethyl]amino-2-methylquinazoline-8-carboxamide] |
| 8 | NC[C@@H](Nc1nc(C(F)(F)F)nc2c(C(N)=O)cccc12)c1ccccc1 [Example 51, 4-((S)-2-Amino-1-phenyl-ethylamino)-2-trifluoromethyl-quinazoline-8-carboxylic acid amide] |
| 1 | CNC[C@@H](Nc1nc(C)nc2c(C(N)=O)cccc12)c1ccc(OC(F)(F)F)c(Cl)c1 [Example 52] |
| 3 | CNC[C@@H](Nc1nc(C)nc2c(C(N)=O)cccc12)c1cc(F)ccc1F [Example 53] |
| 7 | CNC[C@@H](Nc1nc(C)nc2c(C(N)=O)cccc12)c1ccc(F)cc1F [Example 54] |
| 6 | CNC[C@@H](Nc1nc(C)nc2c(C(N)=O)cccc12)c1c(F)cccc1F [Example 55] |
| 1 | CNC[C@@H](Nc1nc(C)nc2c(C(N)=O)cccc12)c1cc(F)c(F)cc1F [Example 56, (S)-2-methyl-4-((2-(methylamino)-1-(2,4,5-trifluorophenyl)ethyl)amino)quinazoline-8-carboxamide] |
| 9 | CCc1nc(N[C@H](CNC)c2cccc(F)c2Cl)c2cccc(C(N)=O)c2n1 [Example 60, (S)-4-((1-(2-chloro-3-fluorophenyl)-2-(methylamino)ethyl)amino)-2-ethylquinazoline-8-carboxamide] |
| 330 | CNC[C@@H](Nc1nc(C)nc2c(C(N)=O)cccc12)c1ccc(Cl)c(Cl)c1 [Example 61] |
